Test results from patent publication US4607034A, “Quinazoline derivatives and pharmaceutical composition thereof” (priority 1979, dated 1986).
Where two headings read alike, the source gives them in different places.

What was measured:
[1] = tested on: spontaneously hypertensive rats (SHR); assay: Antihypertensive test in spontaneously hypertensive rats (mean blood pressure); assay type: in vivo, male); conditions: Rattus norvegicus
Procedure: (§1) Through a cannula chronically intubated into the abdominal aorta of a male SHR of 20 to 30 weeks after birth, mean blood pressure and heart rate were measured by means of an electronic recording system without anesthesia and restraint. Five rats were employed in one group of SHR. […] At 1, 3, 6 and 24 hours after administration of test samples, blood pressure and heart rate were determined.

ICR-strain male mice = assay: in vivo; assay type: in vivo; conditions: oral, ten mice/group, one week
Procedure: (§2) Ten ICR-strain male mice weighing from 25 to 35 g. were used per one group, after fasting for 6 hours (water was freely taken in). Each test sample was suspended in a 1% tragacanth solution and administered orally at a concentration adjusted so as to give a volume of 40 ml/kg. After administration, feed was given and observation was continued for one week.

in vivo = assay type: in vivo; conditions: mouse, in vivo; oral, mice, ten mice/group, observed one week
Procedure: as §2

α-adrenoceptor = conditions: known; cited from earlier work
[2] = tested on: spontaneously hypertensive rats (SHR); conditions: rat, in vivo, po
Procedure: as §1

[3] = SHR 3 mg/kg, oral administration, 1 hr, negative = decrease, read-out: Percent decrease in mean blood pressure after administration, 1 hr
[4] = SHR 3 mg/kg, oral administration, 3 hrs, negative = decrease, read-out: Percent decrease in mean blood pressure after administration, 3 hrs
[5] = SHR 3 mg/kg, oral administration, 6 hrs, negative = decrease, read-out: Percent decrease in mean blood pressure after administration, 6 hrs
[6] = SHR 3 mg/kg, oral administration, 24 hrs, negative = decrease, read-out: Percent decrease in mean blood pressure after administration, 24 hrs

Compound | change in vivo at 3 mg/kg [1, 3] [%] | change in vivo at 3 mg/kg [1, 4] [%] | change in vivo at 3 mg/kg [1, 5] [%] | change in vivo at 3 mg/kg [1, 6] [%] | Number of dead mouse (ICR-strain male mice; 2,500 mg/kg) | Number of dead mouse (ICR-strain male mice; 5,000 mg/kg) | LD50 at 168 h (in vivo) [mg/kg] | Number of dead mouse (ICR-strain male mice; 1,250 mg/kg) | mechanism of antihypertensive activity (α-adrenoceptor) | change in vivo at 3 mg/kg ([1]; po, 24 h, read-out: Percent decrease in mean blood pressure after administration, 24 hrs) [%] | change in heart rate [2]
COc1cc2nc(N3CCN(C(=O)NC4CCCC4)CC3)nc(N)c2cc1OC [Compound 3, 2-(4-cyclopentylcarbamoyl-piperazin-1-yl)-4-amino-6,7-dimethoxyquinazoline] | -27.1 | -27 | -27 | -0.3 | 0 | 0 | > 5000 | – | – | – | –
COc1cc2nc(N3CCN(C(=O)NC4CCCCC4)CC3)nc(N)c2cc1OC [Compound 4, 2-(4-cyclohexylcarbamoyl-piperazin-1-yl)-4-amino-6,7-dimethoxyquinazoline] | -26.8 | -26.2 | -25.1 | -4.9 | 0 | 0 | > 5000 | – | – | – | –
COc1cc2nc(N3CCN(C(=O)NC4CCCCCC4)CC3)nc(N)c2cc1OC [Compound 5, 2-(4-cycloheptylcarbamoyl-piperazin-1-yl)-4-amino-6,7-dimethoxyquinazoline] | -18.4 | -24.7 | -19.2 | -3.7 | – | – | – | – | – | – | –
COc1cc2nc(N3CCN(C(=O)Nc4ccco4)CC3)nc(N)c2cc1OC [Compound 6, 2-[4-(furan-2-yl)carbamoyl-piperazin-1-yl]-4-amino-6,7-dimethoxyquinazoline] | -11.9 | -14.5 | -11.4 | 1 | – | – | – | – | – | – | –
COc1cc2nc(N3CCN(C(=S)NC4CCCCC4)CC3)nc(N)c2cc1OC [Compound 9, 2-(4-cyclohexylthiocarbamoyl-piperazin-1-yl)-4-amino-6,7-dimethoxyquinazoline] | -19.3 | -22.2 | -20.5 | -1.3 | – | – | – | – | – | – | –
COc1cc2nc(N3CCN(C(=O)Nc4ccccc4)CC3)nc(N)c2cc1OC [Compound 12, 2-(4-phenylcarbamoyl-piperazin-1-yl)-4-amino-6,7-dimethoxyquinazoline] | -13.3 | -19.7 | -17 | 3.7 | 0 | 0 | > 5000 | – | – | – | –
COc1cc2nc(N3CCN(C(=O)Nc4ccccc4C)CC3)nc(N)c2cc1OC [Compound 13, 2-[4-(2-methylphenyl)carbamoyl-piperazin-1-yl]-4-amino-6,7-dimethoxyquinazoline] | -20.2 | -17.9 | -21.4 | 1.2 | 5 | 10 | 2500 | – | – | – | –
COc1cc2nc(N3CCN(C(=O)Nc4ccc(C)cc4)CC3)nc(N)c2cc1OC [Compound 15, 2-[4-(4-methylphenyl)carbamoyl-piperazin-1-yl]-4-amino-6,7-dimethoxyquinazoline] | -17.1 | -18.5 | -21.8 | 1.2 | – | – | – | – | – | – | –
COc1cccc(NC(=O)N2CCN(c3nc(N)c4cc(OC)c(OC)cc4n3)CC2)c1 [Compound 18, 2-[4-(3-methoxyphenyl)carbamoyl-piperazin-1-yl]-4-amino-6,7-dimethoxyquinazoline] | -5.9 | -17.2 | -15.9 | 4.6 | – | – | – | – | – | – | –
CCOc1ccc(NC(=O)N2CCN(c3nc(N)c4cc(OC)c(OC)cc4n3)CC2)cc1 [Compound 21, 2-[4-(4-ethoxyphenyl)carbamoyl-piperazin-1-yl]-4-amino-6,7-dimethoxyquinazoline] | -22.4 | -24.5 | -27.7 | -6.4 | 0 | 0 | > 5000 | – | – | – | –
COc1cc2nc(N3CCN(C(=O)Nc4ccccc4F)CC3)nc(N)c2cc1OC [Compound 25, 2-[4-(2-fluorophenyl)carbamoyl-piperazin-1-yl]-4-amino-6,7-dimethoxyquinazoline] | -30.3 | -22 | -23.8 | -7.3 | 7 | 10 | 1870 | 3 | – | – | –
COc1cc2nc(N3CCN(C(=O)Nc4cccc(F)c4)CC3)nc(N)c2cc1OC [Compound 26, 2-[4-(3-fluorophenyl)carbamoyl-piperazin-1-yl]-4-amino-6,7-dimethoxyquinazoline] | -21.5 | -21.7 | -24.3 | 0 | – | – | – | – | – | – | –
COc1cc2nc(N3CCN(C(=O)Nc4cccc(Cl)c4)CC3)nc(N)c2cc1OC [Compound 29, 2-[4-(3-chlorophenyl)carbamoyl-piperazin-1-yl]-4-amino-6,7-dimethoxyquinazoline] | -15.1 | -18.5 | -19.4 | -4.9 | – | – | – | – | – | – | –
COc1cc2nc(N3CCN(C(=O)Nc4ccc(Cl)cc4C)CC3)nc(N)c2cc1OC [Compound 34, 2-[4-(2-methyl-4-chlorophenyl)carbamoyl-piperazin-1-yl]-4-amino-6,7-dimethoxyquinazoline] | -12.1 | -19 | -18.2 | -1.2 | – | – | – | – | – | – | –
COc1cc2nc(N3CCN(/C(S)=N/c4ccccc4)CC3)nc(N)c2cc1OC [Compound 35, 2-(4-phenylthiocarbamoyl-piperazin-1-yl)-4-amino-6,7-dimethoxyquinazoline] | -28 | -20.9 | -24.7 | 0.6 | 0 | 0 | > 5000 | – | – | – | –
COc1cc2nc(N3CCCN(C(=O)Nc4ccccc4)CC3)nc(N)c2cc1OC [Compound 37, 2-(4-phenylcarbamoyl-homopiperazin-1-yl)-4-amino-6,7-dimethoxyquinazoline] | -11.7 | -12.8 | -5 | 0 | – | – | – | – | – | – | –
COc1cc2nc(N3CCN(C(=O)c4ccco4)CC3)nc(N)c2cc1OC [Prazosin, 2-[4-(2-furoyl)-piperazin-1-yl]-4-amino-6,7-dimethoxyquinazoline, reference compound] | -27.9 | -17.3 | -19 | – | – | – | – | – | relaxation of peripheral arterioles as a consequence of α-adrenoceptor blockade | -1.7 | no significant change
